Source: patent US20240391862A1, “(1,4,5-TRISUBSTITUTED-1H-PYRAZOL-3-YL)OXY-2-ALKOXY ALKYL ACIDS AND THEIR DERIVATIVES, THEIR SALTS AND THEIR USE AS HERBICIDAL AGENTS” (Bayer AKtiengesellschaft, priority 2021, published 2024)

Experiments:
VIOTR = test: Post-emergence herbicidal effect, greenhouse pot test; format: in vivo, Viola tricolor; settings: Viola tricolor, 504 h, read-out: Post-emergence effect against VIOTR in %
From the text: (§1) • ALOMY: Alopecurus myosuroides SETVI: Setaria viridis • AVEFA: Avena fatua POLCO: Fallopia convolvulus • AMARE: Amaranthus retroflexus ECHCG: Echinochloa crus-galli • LOLRJ: Lolium rigidum STEME: Stellaria media • VERPE: Veronica persica MATIN: Tripleurospermum inodorum • DIGSA: Digitaria sanguinalis ABUTH: Abutylon threophrasti • TRZAS: Triticum aestivum VIOTR: Viola tricolor • BRSNW: Brassica napus ZEAMX: Zea mays • PHBPU: Ipomoea purpurea GLXMA: Glycine max • ORYSA: Oryza sativa HORMU: Hordeum murinum
(§2) Seeds of monocotyledonous and dicotyledonous weeds and crop plants are placed in sandy loam in plastic or organic planting pots, covered with soil and cultivated in a greenhouse under controlled growth conditions. 2 to 3 weeks after sowing, the trial plants are treated at the one-leaf stage. The compounds of the invention, formulated in the form of wettable powders (WP) or as emulsion concentrates (EC), are then sprayed onto the green parts of the plants as aqueous suspension or emulsion with addition of 0.5% additive at a water application rate of 600 l/ha (converted). After the test plants have been kept in the greenhouse under optimum growth conditions for about 3 weeks, the activity of the preparations is rated visually in comparison to untreated controls. For example, 100% activity=the plants have died, 0% activity=like control plants.
(§3) Tables 20a to 38c below show the effects/crop compatibilities of selected compounds of the general formula (I) on various harmful plants at an application rate corresponding to 20 to 320 g/ha, which were obtained by the trial procedure specified above.

ABUTH = test: as above; format: in vivo, Abutilon theophrasti; settings: Abutilon theophrasti, 504 h, visual rating about 3 weeks after treatment, read-out: Post-emergence effect against ABUTH
From the text: as §1, §2, §3

DIGSA = test: as above; format: in vivo, Digitaria sanguinalis; settings: Digitaria sanguinalis, 504 h, visual rating about 3 weeks after treatment, read-out: Post-emergence effect against DIGSA
From the text: as §1, §2, §3

AMARE = test: as above; format: in vivo, Amaranthus retroflexus; settings: Amaranthus retroflexus, 504 h, visual rating about 3 weeks after treatment, read-out: Post-emergence effect against AMARE
From the text: as §1, §2, §3

VERPE = test: as above; format: in vivo, Veronica persica; settings: Veronica persica, 504 h, read-out: Post-emergence effect against VERPE in %
From the text: as §1, §2, §3

MATIN = test: as above; format: in vivo, Tripleurospermum inodorum; settings: Tripleurospermum inodorum, 504 h, read-out: Post-emergence effect against MATIN in %
From the text: as §1, §2, §3

AVEFA = test: as above; format: in vivo, Avena fatua; settings: Avena fatua, 504 h, visual rating about 3 weeks after treatment, read-out: Post-emergence effect against AVEFA
From the text: as §1, §2, §3

LOLRI = test: as above; format: in vivo, Lolium rigidum; settings: Lolium rigidum, 504 h, read-out: Post-emergence effect against LOLRI in %
From the text: as §1, §2, §3

ALOMY = test: as above; format: in vivo, Alopecurus myosuroides; settings: Alopecurus myosuroides, 504 h, visual rating about 3 weeks after treatment, read-out: Post-emergence effect against ALOMY
From the text: as §1, §2, §3

SETVI = test: as above; format: in vivo, Setaria viridis; settings: Setaria viridis, 504 h, read-out: Post-emergence effect against SETVI in %
From the text: as §1, §2, §3

ZEAMX = test: Post-emergence herbicidal effect and crop plant compatibility, greenhouse pot test; format: in vivo, Zea mays; settings: Zea mays, 504 h, 20 g/ha, one-leaf stage, rated visually after about 3 weeks vs untreated controls, read-out: Post-emergence effect at 20 g/ha against ZEAMX in %
From the text: as §1, §2, §3

ECHCG = test: Post-emergence herbicidal effect, greenhouse pot test; format: in vivo, Echinochloa crus-galli; settings: Echinochloa crus-galli, 504 h; for pest or weed control at 80 g/ha / pest or weed control at 320 g/ha: read-out: Post-emergence effect against ECHCG in %; for pest or weed control at 20 g/ha: visual rating about 3 weeks after treatment, read-out: Post-emergence effect against ECHCG
From the text: as §1, §2, §3

PHBPU = test: as above; format: in vivo, Ipomoea purpurea; settings: Ipomoea purpurea, 504 h, read-out: Post-emergence effect against PHBPU in %
From the text: as §1, §2, §3

POLCO = test: as above; format: in vivo, Fallopia convolvulus; settings: Fallopia convolvulus, 504 h, read-out: Post-emergence effect against POLCO in %
From the text: as §1, §2, §3

KCHSC = test: as above; format: in vivo; settings: 504 h, 320 g/ha, read-out: Post-emergence effect against KCHSC in %
Experimental: as §2, with “plants. Tables 20a to 38c below show the effects/crop compatibilities of selected compounds of the general formula (I) on various harmful plants at an application rate corresponding to 20 to 320 g/ha, which were obtained by the trial procedure specified above.” for “plants.”

COC(=O)C(OC)Oc1nn(-c2ccccc2)c(-c2ccc(F)nc2)c1Cl (stereo not shown) [Example I-26]
20%: plant injury at 20 g/ha (ZEAMX)
90%: pest or weed control at 320 g/ha (ABUTH) | pest or weed control at 320 g/ha (DIGSA) | pest or weed control at 80 g/ha (VERPE) | pest or weed control at 320 g/ha (VERPE) | pest or weed control at 320 g/ha (AVEFA) | pest or weed control at 80 g/ha (LOLRI) | pest or weed control at 320 g/ha (LOLRI) | pest or weed control at 80 g/ha (ALOMY) | pest or weed control at 320 g/ha (ALOMY) | pest or weed control at 320 g/ha (SETVI) | pest or weed control at 320 g/ha (ECHCG) | pest or weed control at 320 g/ha (PHBPU)
80%: pest or weed control at 80 g/ha (VIOTR) | pest or weed control at 320 g/ha (VIOTR) | pest or weed control at 80 g/ha (DIGSA; 80 g/ha) | pest or weed control at 20 g/ha (AMARE; 20 g/ha) | pest or weed control at 80 g/ha (AMARE) | pest or weed control at 320 g/ha (AMARE) | pest or weed control at 20 g/ha (MATIN) | pest or weed control at 80 g/ha (MATIN) | pest or weed control at 320 g/ha (MATIN) | pest or weed control at 80 g/ha (AVEFA) | pest or weed control at 80 g/ha (ECHCG) | pest or weed control at 20 g/ha (PHBPU) | pest or weed control at 80 g/ha (PHBPU)

CCOC(=O)C(OC)Oc1nn(-c2cc(F)ccc2F)c(-c2cncc(F)c2)c1C1CC1 (stereo not shown) [Example I-37]
80%: pest or weed control at 20 g/ha (VIOTR; 20 g/ha) | pest or weed control at 20 g/ha (ABUTH) | pest or weed control at 20 g/ha (MATIN) | pest or weed control at 80 g/ha (AVEFA)
90%: pest or weed control at 80 g/ha (VIOTR) | pest or weed control at 320 g/ha (VIOTR) | pest or weed control at 80 g/ha (ABUTH) | pest or weed control at 320 g/ha (ABUTH) | pest or weed control at 320 g/ha (DIGSA) | pest or weed control at 80 g/ha (AMARE) | pest or weed control at 320 g/ha (AMARE) | pest or weed control at 20 g/ha (VERPE) | pest or weed control at 80 g/ha (MATIN) | pest or weed control at 320 g/ha (MATIN) | pest or weed control at 320 g/ha (AVEFA) | pest or weed control at 80 g/ha (LOLRI) | pest or weed control at 80 g/ha (SETVI) | pest or weed control at 320 g/ha (SETVI) | pest or weed control at 80 g/ha (POLCO) | pest or weed control at 320 g/ha (POLCO) | pest or weed control at 20 g/ha (PHBPU) | pest or weed control at 80 g/ha (PHBPU) | pest or weed control at 320 g/ha (PHBPU)
100%: pest or weed control at 80 g/ha (VERPE) | pest or weed control at 320 g/ha (VERPE) | pest or weed control at 320 g/ha (LOLRI) | pest or weed control at 80 g/ha (ALOMY) | pest or weed control at 320 g/ha (ALOMY) | pest or weed control at 80 g/ha (ECHCG) | pest or weed control at 320 g/ha (ECHCG)

COC(Oc1nn(-c2cc(F)ccc2F)c(-c2cncc(F)c2)c1C1CC1)C(=O)O (stereo not shown) [Example I-109]
80%: pest or weed control at 20 g/ha (ABUTH) | pest or weed control at 80 g/ha (ABUTH) | pest or weed control at 320 g/ha (KCHSC) | pest or weed control at 20 g/ha (VERPE) | pest or weed control at 80 g/ha (VERPE) | pest or weed control at 320 g/ha (VERPE) | pest or weed control at 320 g/ha (MATIN) | pest or weed control at 80 g/ha (AVEFA) | pest or weed control at 320 g/ha (SETVI) | pest or weed control at 80 g/ha (POLCO) | pest or weed control at 20 g/ha (ECHCG)
90%: pest or weed control at 80 g/ha (VIOTR) | pest or weed control at 320 g/ha (VIOTR) | pest or weed control at 320 g/ha (ABUTH) | pest or weed control at 320 g/ha (AVEFA) | pest or weed control at 80 g/ha (LOLRI) | pest or weed control at 320 g/ha (LOLRI) | pest or weed control at 320 g/ha (ALOMY) | pest or weed control at 320 g/ha (POLCO) | pest or weed control at 80 g/ha (ECHCG) | pest or weed control at 320 g/ha (ECHCG) | pest or weed control at 80 g/ha (PHBPU) | pest or weed control at 320 g/ha (PHBPU)

COC(=O)C(OC)Oc1nn(-c2cc(F)ccc2F)c(-c2cncc(F)c2)c1C1CC1 (stereo not shown) [Example I-111]
80%: pest or weed control at 80 g/ha (VIOTR) | pest or weed control at 320 g/ha (VIOTR) | pest or weed control at 80 g/ha (ABUTH) | pest or weed control at 320 g/ha (DIGSA) | pest or weed control at 80 g/ha (AMARE) | pest or weed control at 320 g/ha (AMARE) | pest or weed control at 20 g/ha (VERPE) | pest or weed control at 80 g/ha (VERPE) | pest or weed control at 320 g/ha (VERPE) | pest or weed control at 20 g/ha (MATIN) | pest or weed control at 80 g/ha (MATIN) | pest or weed control at 320 g/ha (MATIN) | pest or weed control at 80 g/ha (ALOMY) | pest or weed control at 20 g/ha (SETVI; 20 g/ha) | pest or weed control at 80 g/ha (SETVI) | pest or weed control at 320 g/ha (SETVI) | pest or weed control at 80 g/ha (POLCO) | pest or weed control at 320 g/ha (POLCO) | pest or weed control at 20 g/ha (ECHCG) | pest or weed control at 20 g/ha (PHBPU)
90%: pest or weed control at 320 g/ha (ABUTH) | pest or weed control at 80 g/ha (AVEFA) | pest or weed control at 320 g/ha (AVEFA) | pest or weed control at 80 g/ha (LOLRI) | pest or weed control at 320 g/ha (LOLRI) | pest or weed control at 320 g/ha (ALOMY) | pest or weed control at 80 g/ha (ECHCG) | pest or weed control at 320 g/ha (ECHCG) | pest or weed control at 80 g/ha (PHBPU) | pest or weed control at 320 g/ha (PHBPU)
